Tests used:
calf thymus DNA [1] = assay: Covalent photobinding of tritiated isopsoralens (scintillation counting); format: binding; conditions: for actual concentrations obtained empirically: nominal concentration of 100 µg/ml in calf thymus DNA / 1 x TE, counted after sitting overnight at room temperature
Experimental: Figure 17 can again be referred to as a flow chart schematically showing the manner in which covalent binding was measured for the compounds synthesized by the methods of the present invention. ^3H-AMIP (3.1 x 10^5 cpm/µg), ^3H-AMDMIP (2.2 x 10^5 cpm/µg), and ^3H-MIP (2.1 x 10^5 cpm/µg) were added to 300 µl of calf thymus DNA (Sigma) in 1 x TE buffer. All of the isopsoralen compounds were added at a nominal concentration of 100 µg/ml. However, actual concentrations obtained empirically (counted after sitting overnight at room temperature) were: ^3H-AMIP (105 µg/ml), ^3H-AMDMIP (115 µg/ml), and ^3H-MIP ([…]).
To assess binding, three samples were prepared for each compound; two were irradiated (15 minutes at 25°C with the CE-I device) while one was unirradiated as a control. Following irradiation, the samples were extracted four times with CHCl3 then precipitated twice. The final pellet was brought up in 1 ml of 1 x TE buffer and resuspended by shaking at 40°C overnight. 50 µl of each sample was then diluted to 0.5 mls with H20. The concentration of DNA was determined by UV absorption (A260) and the amount of covalently bound isopsoralen ("adduct") was determined by scintillation counting (3 x 100 µl aliquots). From these numbers, the following binding ratios (adducts: DNA base pair) were determined: […]

calf thymus DNA [2] = assay: Equilibrium dialysis, dark binding (association constant); conditions: for Ka: 4°C, five days, dark, isopsoralen:DNA base pair ratio 1:15
Experimental: Equilibrium Dialysis was used to determine the association ("dark binding") constants of AMIP, AMDMIP and MIP with calf thymus DNA. The tritium labelled isopsoralens were used for the experiment. The method was a modification of that of Isaacs et al. Biochemistry 16, 1058-1066 (1977).
Spectrapor 2 dialysis tubing (Spectrum) was pretreated by boiling in saturated sodium bicarbonate then rinsed thoroughly with double distilled water. Calf thymus DNA (Sigma) was prepared at a concentration of 50 µg/ml in 1 X TE. The samples were prepared by placing 1.0 ml of the DNA solution inside the bag and using enough isopsoralen to provide an isopsoralen:DNA base pair ratio of 1:15. The samples were prepared with the tritiated isopsoralen ("Drug") placed either inside or outside
of the dialysis bag (each sample was placed in a scintillation vial containing a small magnetic stir bar). The samples were stirred at 4°C for five days in the dark. After this period the bags were removed, opened, and the radioactivity inside and outside the bag determined by scintillation counting. The concentration of the DNA was determined by measuring optical density at 260 nm. The […] constant (Ka) was calculated from this information (Table 9). Preparing the samples in duplicate with the isopsoralen both inside and outside the dialysis bag provided a check that the system had come to equilibrium at the end of the dialysis period (the amount of isopsoralen inside and outside the bag at equilibrium should be, and was, the same in both cases).
The association constant, Ka is defined here as Ka = ([P:DNA])/([P] [DNA]) [formula] for the reaction P + DNA = P:DNA where p = free drug in solution, DNA = DNA binding site for the drug, and P:DNA = drug associated with the DNA. The following summarizes the Ka values determined for the compounds: […]

Taq I DNA polymerase = assay: Primer extension on site-specific 71-mer monoadduct template; format: biochemical, Thermus aquaticus; conditions: for Taq polymerase extension on 71-mer monoadduct template / position of the Taq polymerase stop within the 71-mer: 55°C, PAGE, autoradiography; for Taq polymerase extension on 71-mer monoadduct template: 0.5, 1.0, 5.0 mins
Experimental: In this experiment, monoadducted 71-mers (as well as unmodified 71-mers) were used in template-dependent enzymatic extension. AMIP, AMDMIP, and MIP 71-mer monoadducts were made as in Example 17. Extension was carried out as in Example 18 except that in this experiment, Taq I DNA polymerase, a thermostable DNA polymerase isolated from Thermus aquaticus (Stratagene, Inc., La Jolla, CA) was assessed for its ability to read past isopsoralens.
The reaction mixture was in 80 µl total volume and comprised 1 x Taq buffer, 200 µM each of dNTP's, 0.05 units of Taq per µl of reaction volume; 1 x 10^-9 M in 71-mer MA; 1 x 10^-8 M in ^32P-labelled SK-39. Each reaction was set up with everything except Taq polymerase. The samples were initially heated to 95°C for 5 mins, then incubated at 55°C for 3 mins. The extension reaction was initiated by addition of Taq polymerase. At the indicated time points (0.5, 1.0, 5.0 mins), 20 µl of the reaction mix was removed to a tube containing 1 µl of 0.5 M EDTA to stop the reaction. All products were analyzed on a 20% polyacrylamide, 7 M urea gel followed by autoradiography.
This experiment investigated whether blocking of Taq polymerase by monoadducts is complete or whether monoadducts can be bypassed by the enzyme. In order to view the process of bypass synthesis, it is necessary to cycle the extension reaction of the primer with the 71-mer templates. Cycling in this case consists of mixing the primer with the 71-mer template, adding Taq polymerase and appropriate reagents, extending, heating to induce strand separation, reannealing of the primer to the 71-mer template, extending again, and subsequent stand separation. This process can be repeated as necessary. During this process, only the complement of the 71-mer template is being synthesized. It is accumulating in a linear fashion with the number of thermal cycles (in contrast to PCR where both strands are being synthesized and accumulate geometrically).
The templates and reaction conditions were as in Example 19 above except that three samples were used for each monoadduct and each sample was tested under different conditions: • Samples (1): one sample for each monoadduct was used to carry out extension at 55°C as in Example 43; • Samples (2): one sample for each monoadduct was used to carry out extension by the following series of steps: denaturing at 95°C; incubating for 30 seconds at 55°C; adding Taq polymerase for 3 minutes at 550C; cooling the reaction for 1 minute at 7°C; stopping the reaction with EDTA for one minute at 95°C: • Samples (3): one sample for each monoadduct was used to carry out extension by repeating the following series of steps nine times: denaturing at 95°C; incubating for 30 seconds at 55°C; adding Taq polymerase for 3 minutes at 55°C; cooling the reaction for 1 minute at 7°C. At the end, the reaction is stopped with EDTA for one minute at 95°C.
To investigate this question further, a new 5-MIP monoadducted 71-mer was prepared by repurification of the HPLC purified 5-MIP monoadducted 15-mer by PAGE. In this way, more of the non-monoadducted 15-mer was removed prior to ligation. The purified 71-mer was then used as template in an extension experiment as described in Example 20. After 10 cycles, there was still evidence of extension product (Figure 34).
Monoadducted 71-mer was constructed as described, but for HMT. Extension was carried out and analyzed as before on PAGE. […] Full length 71-mer is not made and a shorter strand corresponding to the position of the HMT adduct was made.

[3] = tritiated drug placed inside dialysis bag
[4] = tritiated drug placed outside dialysis bag

| Molecule | actual concentrations obtained empirically (calf thymus DNA [1]) [µg/mL] | Ka (calf thymus DNA [2]; [3]) | Ka (calf thymus DNA [2]; [4]) | Taq polymerase extension on 71-mer monoadduct template (Taq I DNA polymerase) | position of the Taq polymerase stop within the 71-mer (Taq I DNA polymerase) | modification density relative to that provided by AMDMIP (calf thymus DNA [1]; photobinding at the same concentration) [%] | Ka relative to AMDMIP (calf thymus DNA [2]; compared with AMDMIP) [%] | extension products truncated (Taq I DNA polymerase; monoadducted 15-mer repurified by PAGE before ligation, after 10 cycles) [%] | full length extension product as share of the total extension products (Taq I DNA polymerase; monoadducted 15-mer repurified by PAGE before ligation, after 10 cycles, band excised and counted) [%] |
| --- | --- | --- | --- | --- | --- | --- | --- | --- | --- |
| 4'-Aminomethyl-4,5'-dimethylisopsoralen [AMDMIP] | 115 | 7.66 x 10^4 | 1.07 x 10^5 | stops at positions that are shorter than the full length 71-mer product | a different stop altogether |  |  |  |  |
| 5-Aminomethylisopsoralen [AMIP] | 105 | 2.96 x 10^4 | 2.21 x 10^4 | stops at positions that are shorter than the full length 71-mer product | multiple stops | 43 | 28 |  |  |
| Cc1cc2occc2c2oc(=O)ccc12 [MIP, 5-Methylisopsoralen] | < 10 | 9.08 x 10^3 | 2.07 x 10^3 | stops at positions that are shorter than the full length 71-mer product | at about the position of the TpA sequence in the 10-mer |  |  | 97.7 | 2.3 |
